Legend:
[1] = molecular target: Tyrosine-protein kinase JAK2 (Homo sapiens, UniProt O60674); experiment: (§1) JAK/TYK2 Assay: 10 mM test compound stock or 1 mM control compound stock (tofocitinib, ruxolitinib or staurosporine) in DMSO was diluted to 0.4 mM in DMSO. A 3-fold series dilution was then performed in DMSO to generate 10 different compound concentrations. The assay was carried out in 384-well white plate. 0.5 uL of 40× compound DMSO solution at different concentrations was mixed with 10 uL 2× enzyme prepared in reaction buffer (20 mM HEPES, 10 mM MgCl2, 0.01% Tween, 1 mM DTT, pH 7.5). 10 uL 2× substrate mixture prepared in reaction buffer was then added to start the reaction. A short spin was done to settle down all solutions to the bottom of the plate. Final concentrations of test compound in the reaction mixture were 10000, 3333, 1111, 370, 123, 41.2, 13.7, 4.57, 1.52 and 0.51 nM. Concentrations of control compound were ten times less. Enzymatic reaction was conducted at 25° C. for 1-2 hours. 10 uL of Kinase Glo Reagents was added to stop the reaction and generate the luminescent signal which was measured using Envision. Luminescence signal was inversely related to kinase activity. […] The mixture without any compound was the positive control. [ATP] [sub] timeJAK1 7.5 nM 2 uM 30 uM (IRS-1) 1 hrJAK2 0.8 nM 2 uM 4 uM (pEY) 1 hrJAK3 1.5 nM 2 uM 4 uM (pEY) 1 hrTYK2 9 nM 2 uM 30 uM (IRS-1) 1 hr
[2] = molecular target: Tyrosine-protein kinase JAK1 (Homo sapiens, UniProt P23458); experiment: as §1
[3] = molecular target: T1, Tyrosine-protein kinase JAK3 (Homo sapiens, UniProt P52333); experiment: as §1
T1 sequence (P52333 whole entry): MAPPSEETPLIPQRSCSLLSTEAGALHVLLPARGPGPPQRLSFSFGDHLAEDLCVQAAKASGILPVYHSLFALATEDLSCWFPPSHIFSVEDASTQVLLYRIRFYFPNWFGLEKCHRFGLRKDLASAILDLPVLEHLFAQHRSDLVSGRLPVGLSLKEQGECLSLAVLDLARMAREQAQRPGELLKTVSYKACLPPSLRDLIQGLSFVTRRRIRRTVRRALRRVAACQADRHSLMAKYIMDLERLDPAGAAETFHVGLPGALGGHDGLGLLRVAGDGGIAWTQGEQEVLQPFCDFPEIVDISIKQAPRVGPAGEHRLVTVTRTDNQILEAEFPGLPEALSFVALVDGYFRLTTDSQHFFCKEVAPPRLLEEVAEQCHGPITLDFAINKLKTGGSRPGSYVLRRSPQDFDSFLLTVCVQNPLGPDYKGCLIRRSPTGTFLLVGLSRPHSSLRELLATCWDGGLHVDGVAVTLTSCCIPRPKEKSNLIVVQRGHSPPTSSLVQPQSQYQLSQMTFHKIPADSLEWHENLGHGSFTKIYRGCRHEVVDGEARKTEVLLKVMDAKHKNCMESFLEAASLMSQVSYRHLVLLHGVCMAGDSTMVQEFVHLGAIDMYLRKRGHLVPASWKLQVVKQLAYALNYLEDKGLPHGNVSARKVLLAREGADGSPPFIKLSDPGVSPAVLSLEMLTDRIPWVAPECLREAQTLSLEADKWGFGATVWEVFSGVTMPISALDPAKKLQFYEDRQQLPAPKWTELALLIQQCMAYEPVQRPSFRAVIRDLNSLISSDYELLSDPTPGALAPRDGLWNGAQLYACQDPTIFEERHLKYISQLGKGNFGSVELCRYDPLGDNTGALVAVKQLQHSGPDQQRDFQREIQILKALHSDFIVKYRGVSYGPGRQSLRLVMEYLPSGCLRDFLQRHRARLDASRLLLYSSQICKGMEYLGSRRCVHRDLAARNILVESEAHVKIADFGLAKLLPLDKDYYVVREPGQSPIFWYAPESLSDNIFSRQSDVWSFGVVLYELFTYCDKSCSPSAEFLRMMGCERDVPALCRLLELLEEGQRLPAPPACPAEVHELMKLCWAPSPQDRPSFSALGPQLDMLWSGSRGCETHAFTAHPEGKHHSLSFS

[4] = molecular target: Non-receptor tyrosine-protein kinase TYK2 (Homo sapiens, UniProt P29597); experiment: as §1

Measured: IC50

Chain of Tyrosine-protein kinase JAK2 (O60674 whole entry): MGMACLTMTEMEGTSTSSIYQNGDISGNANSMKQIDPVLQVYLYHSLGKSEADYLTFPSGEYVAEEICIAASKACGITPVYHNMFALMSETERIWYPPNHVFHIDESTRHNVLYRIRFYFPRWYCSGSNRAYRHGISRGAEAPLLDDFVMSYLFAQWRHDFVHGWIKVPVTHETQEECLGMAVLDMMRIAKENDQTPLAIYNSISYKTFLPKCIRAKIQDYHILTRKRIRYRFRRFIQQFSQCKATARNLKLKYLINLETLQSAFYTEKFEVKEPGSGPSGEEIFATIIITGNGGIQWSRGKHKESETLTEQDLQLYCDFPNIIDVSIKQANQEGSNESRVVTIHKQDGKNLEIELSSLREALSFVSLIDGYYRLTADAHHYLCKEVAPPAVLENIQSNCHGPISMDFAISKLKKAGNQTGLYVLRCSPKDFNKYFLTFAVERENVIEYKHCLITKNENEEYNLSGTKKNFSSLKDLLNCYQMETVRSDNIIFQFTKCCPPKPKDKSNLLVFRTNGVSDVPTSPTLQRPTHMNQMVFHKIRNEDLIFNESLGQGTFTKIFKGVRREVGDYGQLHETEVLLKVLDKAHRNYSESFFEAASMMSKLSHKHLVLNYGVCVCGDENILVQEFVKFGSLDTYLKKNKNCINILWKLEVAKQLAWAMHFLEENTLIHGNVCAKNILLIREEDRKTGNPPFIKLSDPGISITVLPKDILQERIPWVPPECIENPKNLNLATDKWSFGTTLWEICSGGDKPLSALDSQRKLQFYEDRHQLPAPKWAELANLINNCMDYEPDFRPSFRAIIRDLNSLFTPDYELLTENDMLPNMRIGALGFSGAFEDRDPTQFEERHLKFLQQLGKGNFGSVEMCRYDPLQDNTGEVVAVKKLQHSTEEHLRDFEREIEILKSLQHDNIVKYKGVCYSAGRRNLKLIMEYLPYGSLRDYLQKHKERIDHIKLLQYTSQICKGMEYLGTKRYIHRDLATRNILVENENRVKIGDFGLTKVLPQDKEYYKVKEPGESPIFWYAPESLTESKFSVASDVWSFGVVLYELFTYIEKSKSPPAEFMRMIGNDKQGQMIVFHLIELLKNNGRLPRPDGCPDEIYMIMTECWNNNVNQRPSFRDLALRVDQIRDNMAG
Chain of Non-receptor tyrosine-protein kinase TYK2 (P29597 whole entry): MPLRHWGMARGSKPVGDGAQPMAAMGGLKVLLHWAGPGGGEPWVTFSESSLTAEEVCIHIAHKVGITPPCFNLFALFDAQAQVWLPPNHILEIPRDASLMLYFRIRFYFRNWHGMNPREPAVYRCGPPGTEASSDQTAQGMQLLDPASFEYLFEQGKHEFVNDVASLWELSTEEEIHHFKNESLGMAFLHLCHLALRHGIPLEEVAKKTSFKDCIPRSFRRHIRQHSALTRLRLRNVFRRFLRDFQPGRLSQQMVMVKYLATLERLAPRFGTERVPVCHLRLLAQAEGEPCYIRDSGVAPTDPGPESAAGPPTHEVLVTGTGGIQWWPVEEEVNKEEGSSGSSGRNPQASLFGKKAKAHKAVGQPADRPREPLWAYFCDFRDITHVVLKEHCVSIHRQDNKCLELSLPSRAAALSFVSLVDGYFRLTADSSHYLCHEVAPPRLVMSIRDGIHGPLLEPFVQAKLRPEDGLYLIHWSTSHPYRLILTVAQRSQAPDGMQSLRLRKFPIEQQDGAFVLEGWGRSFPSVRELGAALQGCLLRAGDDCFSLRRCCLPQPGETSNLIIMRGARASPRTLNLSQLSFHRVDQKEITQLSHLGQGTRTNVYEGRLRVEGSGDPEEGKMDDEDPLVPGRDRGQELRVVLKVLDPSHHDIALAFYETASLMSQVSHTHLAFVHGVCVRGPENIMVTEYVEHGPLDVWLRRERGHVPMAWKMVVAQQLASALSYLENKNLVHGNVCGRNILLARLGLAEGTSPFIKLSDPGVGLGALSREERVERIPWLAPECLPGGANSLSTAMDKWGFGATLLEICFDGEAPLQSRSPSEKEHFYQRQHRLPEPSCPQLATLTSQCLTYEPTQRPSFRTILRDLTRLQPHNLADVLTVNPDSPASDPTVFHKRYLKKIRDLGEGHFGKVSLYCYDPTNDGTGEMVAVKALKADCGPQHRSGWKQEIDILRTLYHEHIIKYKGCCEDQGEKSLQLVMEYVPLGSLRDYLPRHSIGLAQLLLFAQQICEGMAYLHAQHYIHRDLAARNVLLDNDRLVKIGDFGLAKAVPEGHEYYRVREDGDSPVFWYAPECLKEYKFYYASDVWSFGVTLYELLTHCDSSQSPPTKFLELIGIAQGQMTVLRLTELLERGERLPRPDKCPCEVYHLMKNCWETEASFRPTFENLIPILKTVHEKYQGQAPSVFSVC
Chain of Tyrosine-protein kinase JAK1 (P23458 whole entry): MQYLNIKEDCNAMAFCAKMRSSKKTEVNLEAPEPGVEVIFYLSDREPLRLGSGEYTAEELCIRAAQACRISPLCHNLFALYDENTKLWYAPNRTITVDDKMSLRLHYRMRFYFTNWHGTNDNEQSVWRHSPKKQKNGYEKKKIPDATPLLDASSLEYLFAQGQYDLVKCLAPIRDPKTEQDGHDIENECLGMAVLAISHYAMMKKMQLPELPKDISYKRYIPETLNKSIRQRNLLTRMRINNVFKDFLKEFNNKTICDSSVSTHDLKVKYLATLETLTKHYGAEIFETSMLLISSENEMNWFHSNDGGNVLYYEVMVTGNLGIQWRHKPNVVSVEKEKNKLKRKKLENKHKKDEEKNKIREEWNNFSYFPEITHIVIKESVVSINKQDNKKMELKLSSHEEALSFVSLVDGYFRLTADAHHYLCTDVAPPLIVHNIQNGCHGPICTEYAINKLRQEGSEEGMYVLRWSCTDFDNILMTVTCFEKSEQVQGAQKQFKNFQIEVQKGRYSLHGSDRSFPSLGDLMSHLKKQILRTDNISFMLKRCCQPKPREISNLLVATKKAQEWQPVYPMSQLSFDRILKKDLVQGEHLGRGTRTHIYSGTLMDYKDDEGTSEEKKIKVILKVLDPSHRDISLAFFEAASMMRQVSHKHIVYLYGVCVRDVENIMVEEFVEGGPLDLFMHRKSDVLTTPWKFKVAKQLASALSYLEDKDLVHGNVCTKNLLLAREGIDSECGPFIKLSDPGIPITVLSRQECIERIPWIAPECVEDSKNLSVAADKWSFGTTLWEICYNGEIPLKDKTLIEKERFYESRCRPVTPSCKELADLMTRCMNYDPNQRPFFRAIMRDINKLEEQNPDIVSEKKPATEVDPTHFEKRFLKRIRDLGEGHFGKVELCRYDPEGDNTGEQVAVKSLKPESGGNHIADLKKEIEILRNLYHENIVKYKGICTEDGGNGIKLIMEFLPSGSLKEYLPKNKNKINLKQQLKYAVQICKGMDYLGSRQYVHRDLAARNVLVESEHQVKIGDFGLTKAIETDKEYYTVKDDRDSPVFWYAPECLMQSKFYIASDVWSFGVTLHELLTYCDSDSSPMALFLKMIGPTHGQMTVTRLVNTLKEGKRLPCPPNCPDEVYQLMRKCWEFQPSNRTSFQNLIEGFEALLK

CCC(CC)Cn1ccc2cnc(Nc3cnn(CC(=O)O[C@@H]4C[C@@H](C(=O)OC)N(C)C4)c3)nc21
< 100 nM: [1] | [2] | [3] | [4]

Reference: ChEMBL document CHEMBL5729354, “Substituted pyrrolo[2,3-d]pyrimidines as JAK inhibitors” (2022)
